Entries after “also recorded” stand apart in the source; their conditions may differ. Like-named read-outs stand apart in the source and are kept apart here.
Assays:
[1] = tested on: HGC-27 cells; test: Cell viability assay in HGC-27 cells; type: cell-based, human; details: for IC50: read-out: IC50 values in HGC-27 cells; for effect of addition of copper ion on suppression of HGC-27 cell viability by the compound: compound-Cu complex vs compound
[2] = target: T1, MST2 (Homo sapiens, UniProt Q13188); test: MST assay, binding to MST2
T1 construct: made in house; host or cells: E. coli BL21 Codon plus (DE3)
T1 sequence (Q13188 1-491): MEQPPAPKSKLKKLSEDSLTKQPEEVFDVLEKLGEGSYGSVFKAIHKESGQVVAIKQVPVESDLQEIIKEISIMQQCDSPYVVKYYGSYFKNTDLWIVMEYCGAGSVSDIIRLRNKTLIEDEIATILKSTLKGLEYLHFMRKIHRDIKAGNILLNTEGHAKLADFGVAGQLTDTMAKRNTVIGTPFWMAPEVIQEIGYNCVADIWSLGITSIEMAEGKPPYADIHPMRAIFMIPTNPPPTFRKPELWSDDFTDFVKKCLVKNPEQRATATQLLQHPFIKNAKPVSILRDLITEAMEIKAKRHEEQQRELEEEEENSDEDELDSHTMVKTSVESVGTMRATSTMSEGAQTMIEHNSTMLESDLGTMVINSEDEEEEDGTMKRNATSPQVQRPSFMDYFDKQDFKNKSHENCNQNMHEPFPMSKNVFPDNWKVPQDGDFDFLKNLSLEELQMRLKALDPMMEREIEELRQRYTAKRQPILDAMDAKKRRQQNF

[3] = target: T2, MST2^Mut (L33/E35/V41A) (Homo sapiens, UniProt Q13188, E35A/L33A/V41A); test: MST assay, binding to MST2 mutant; details: L33/E35/V41 substituted with alanine
T2 construct: the mutant MBP-tagged MST2 (amino acid 1–308, L33/E35/V41A); MBP; made in house; host or cells: E. coli BL21 Codon plus (DE3)

[4] = tested on: HEK293A cells; test: DNA repair after etoposide (residual γ-H2AX immunoblot); type: cell-based; details: 20 μM etoposide 2 h, then with or without compound 6 h
[5] = tested on: MKN-28 cells; test: Killing efficiency in MKN-28 cells; type: cell-based, human; details: 1 μM CX and 20 μM cisplatin
[6] = target: T3, STRN3–MST2 interaction (Homo sapiens, UniProt Q13188); test: MBP/GST pull-down and Co-IP, STRN3–MST2; type: binding
T3 construct: GST-tagged MST2 (amino acid 1–308), MBP-tagged MST2 (amino acid 1–308); made in house; host or cells: E. coli BL21 Codon plus (DE3)

[7] = tested on: YAP target gene CTGF in HGC-27 cells; test: CTGF mRNA (qPCR) in HGC-27 cells; details: 48 h
[8] = tested on: HGC-27 cells; test: Colony formation assay in HGC-27 cells; details: about 2 weeks
Experimental: After about 2 weeks incubation, cell colonies were identified by their being stained with 1% crystal violet dye. And colonies with diameters of >1 mm were counted.

[9] = target: T4, PP2Aa (Homo sapiens, UniProt P30153); test: ITC binding to PP2Aa; details: 25 °C
T4 construct: GST; made in house; host or cells: E. coli BL21 Codon plus (DE3)
Experimental: (§1) ITC experiments were conducted using an iTC200 instrument from Microcal at 25 °C. […] Each titration included a single […] injection followed by 19 sequential injections of […] aliquots, with a spacing of 300 s between the injections, and stirring at 1000 rpm. Data were analyzed using the ITC data analysis software (MicroCal Software, https://www.malvernpanalytical.com/en/support/product-support/software/microcal-peaq-itc-analysis-software-v141).

[10] = target: T5, STRN3 (Homo sapiens, UniProt Q13033); test: ITC binding to STRN3
T5 construct: His-SUMO; made in house; host or cells: E. coli BL21 Codon plus (DE3)
Experimental: as §1

[11] = target: T4, PP2Aa; test: MST assay, binding to PP2Aa; details: for effect on binding of STRN3 to PP2Aa: compound added
[12] = tested on: mice; details: ref [65]; cited from earlier work
[13] = tested on: zebrafish larvae; details: ref [65], [66]; cited from earlier work
[14] = tested on: AGS cells xenograft; test: AGS xenograft tumor model; details: intratumoral injection, five consecutive days, vs control
Experimental: Briefly, healthy male 615 mice were maintained in pathogen-free conditions. Mice were first injected with 2 × 10^6 AGS cells/per mouse into their flanks to induce tumor formation. Once the tumor volume reached about 100 mm^3, mice were injected intratumorally with indicted inhibitors for five successive days. Two weeks later, the mice were euthanized and then their tumors were harvested and weighed.

[15] = tested on: MNNG-induced GC tumors; test: MNNG-induced GC mouse model; details: 50 mg/kg per day DSF vs control mice
[16] = target: T6, PP2Aa–STRN3 interaction (Homo sapiens, UniProt P30153); test: Co-IP of HA-PP2Aa and Flag-STRN3 in HEK293A cells; type: cell-based; parameters: expressed in transfected cells; host or cells: HEK293A
Target sequence in this assay (P30153 whole entry): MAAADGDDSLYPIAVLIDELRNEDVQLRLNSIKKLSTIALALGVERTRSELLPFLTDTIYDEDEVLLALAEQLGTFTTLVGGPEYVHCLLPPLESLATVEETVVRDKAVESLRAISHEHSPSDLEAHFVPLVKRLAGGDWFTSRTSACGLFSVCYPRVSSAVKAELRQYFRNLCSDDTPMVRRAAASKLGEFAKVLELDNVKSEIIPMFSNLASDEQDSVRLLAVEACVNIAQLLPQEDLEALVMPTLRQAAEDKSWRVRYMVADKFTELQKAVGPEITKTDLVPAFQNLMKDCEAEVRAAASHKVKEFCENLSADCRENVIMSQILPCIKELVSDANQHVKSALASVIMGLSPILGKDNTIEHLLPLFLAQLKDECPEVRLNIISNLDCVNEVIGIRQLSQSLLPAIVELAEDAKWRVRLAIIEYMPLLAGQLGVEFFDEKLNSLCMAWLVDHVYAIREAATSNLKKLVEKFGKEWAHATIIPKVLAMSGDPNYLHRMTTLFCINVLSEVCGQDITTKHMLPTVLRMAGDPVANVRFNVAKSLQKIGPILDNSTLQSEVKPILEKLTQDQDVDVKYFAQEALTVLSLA

[17] = tested on: GES-1 cells; test: Cell viability of non-cancerous gastric epithelial GES-1 cells; details: Homo sapiens, GES1, read-out: IC50 value, GES-1 cells
[18] = target: T6, PP2Aa–STRN3 interaction; test: GST pulldown assay, PP2Aa–STRN3; type: binding; parameters: GST; SUMO; made in house; host or cells: E. coli BL21 Codon plus (DE3); details: recombinant GST-PP2Aa and His-Sumo-STRN3; up to 10 μM compound
Target sequence in this assay (P30153 8-589): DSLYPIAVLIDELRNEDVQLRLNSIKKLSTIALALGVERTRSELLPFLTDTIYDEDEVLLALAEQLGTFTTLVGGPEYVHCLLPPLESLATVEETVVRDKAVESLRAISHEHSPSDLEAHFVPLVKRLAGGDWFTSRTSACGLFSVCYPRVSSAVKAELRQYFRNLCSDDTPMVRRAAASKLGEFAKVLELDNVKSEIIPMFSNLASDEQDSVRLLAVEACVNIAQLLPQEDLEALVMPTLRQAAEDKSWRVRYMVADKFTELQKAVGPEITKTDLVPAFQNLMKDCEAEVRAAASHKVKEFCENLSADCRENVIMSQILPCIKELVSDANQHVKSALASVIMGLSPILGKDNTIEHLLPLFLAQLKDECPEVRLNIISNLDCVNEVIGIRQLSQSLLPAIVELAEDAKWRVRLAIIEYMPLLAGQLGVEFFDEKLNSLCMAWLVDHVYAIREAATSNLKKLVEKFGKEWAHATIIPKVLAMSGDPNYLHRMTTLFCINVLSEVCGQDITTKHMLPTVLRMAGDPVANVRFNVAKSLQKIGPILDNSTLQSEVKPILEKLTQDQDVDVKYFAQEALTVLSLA

[19] = tested on: YAP phosphorylation; details: HEK293A, Flag-YAP
[20] = tested on: AGS cells; test: Killing efficiency in AGS cells; type: cell-based, human; details: 0.1 μM TH and 10 μM cisplatin
[21] = tested on: YAP target gene CTGF in GES-1 cells; test: CTGF mRNA (qPCR) in GES-1 cells; details: 48 h

T4 sequence (P30153 8-589): as above
T5 sequence (Q13033 64-145): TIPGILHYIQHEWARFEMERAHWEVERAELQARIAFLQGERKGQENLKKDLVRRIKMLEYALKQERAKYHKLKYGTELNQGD
T2 sequence (Q13188 1-308 L33A/E35A/V41A): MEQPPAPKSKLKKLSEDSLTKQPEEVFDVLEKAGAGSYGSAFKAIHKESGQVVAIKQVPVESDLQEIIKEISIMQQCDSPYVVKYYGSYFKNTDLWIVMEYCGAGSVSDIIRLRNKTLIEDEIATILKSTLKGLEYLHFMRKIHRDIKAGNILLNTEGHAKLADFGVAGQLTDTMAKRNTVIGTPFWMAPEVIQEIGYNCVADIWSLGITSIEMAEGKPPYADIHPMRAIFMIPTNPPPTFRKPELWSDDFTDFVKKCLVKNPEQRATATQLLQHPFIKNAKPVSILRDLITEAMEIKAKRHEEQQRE

SMILES: CN1CCCN(C(=O)c2cccc(-c3ccc(C=C4C(=O)Nc5ccc(Cl)cc54)o3)c2)CC1 [CX, CX-6258]
- inhibition of HGC-27 cell growth / viability ([1]; result in words): significantly inhibit; also recorded: inhibited the cell viability; also recorded: comparable with DSF
- Kd [2]: 0.339 µM
- effect on STRN3–MST2 binding ([2]; in the presence of compound): could not bind with each other in the presence of CX
- binding to MST2^Mut [3]: failed to bind with CX
- DNA repair (residual γ-H2AX) [4]: markedly attenuated the repair
- sensitization of GC cells to cisplatin [5]: greatly sensitized GC cells to cisplatin
- STRN3–MST2 interaction in MBP pull-down [6]: able to disrupt
- mRNA levels of YAP target gene CTGF [7]: dose-dependently decreased
- colony formation of HGC-27 cells [8]: inhibited

SMILES: CCN(CC)C(=S)SSC(=S)N(CC)CC [DSF, disulfiram]
- IC50 ([1]; cell viability, listed as Disulfiram): 0.39 µM
- IC50 ([1]; cell viability): < 5 µM
- effect of addition of copper ion on suppression of HGC-27 cell viability by the compound [1]: further dramatically enhanced
- Kd [9]: 4.1 µM
- binding to STRN3 [10]: can specifically bind to PP2Aa but not STRN3
- Kd [11]: 4.9 µM
- effect on binding of STRN3 to PP2Aa [11]: readily disrupted the binding of STRN3 to PP2Aa
- in vivo side effects in mice [12]: reduction of body weight and glucose excretion
- adverse effects in zebrafish larvae [13]: adverse effects
- tumor weight / tumor growth [14]: modestly lower tumor weights
- Ctgf expression in tumors (RNA-Scope) [15]: sharp decrease
- area of tumors [15]: substantially smaller
- mRNA levels of YAP target gene CTGF [7]: significantly reduced
- colony formation of HGC-27 cells [8]: significantly inhibited colony formation
- PP2Aa–STRN3 interaction in Co-IP [16]: dramatically decreased
- IC50 [17]: 1.29 µM
- PP2Aa–STRN3 association in GST pulldown [18]: dramatically reduced
- level of pYAP^Ser [19]: dose-dependently increased
- level of pYAP^Tyr [19]: marginal effect

SMILES: CN(C)C(=S)SSC(=S)N(C)C [TH, thiram]
- IC50 ([1]; Homo sapiens, HGC-27, cell viability): 0.4 µM
- effect of addition of copper ion on suppression of HGC-27 cell viability by the compound [1]: markedly enhanced
- Kd [11]: 1.52 µM
- binding affinity to PP2Aa relative to that of STRN3 to PP2Aa [11]: 14 fold
- effect on binding of STRN3 to PP2Aa [11]: efficiently disrupt
- DNA repair (residual γ-H2AX) [4]: decreased
- sensitization of GC cells to cisplatin [20]: significantly sensitized GC cells to cisplatin
- adverse effects in zebrafish larvae [13]: adverse effects
- mRNA levels of YAP target gene CTGF [21]: no significant change
- colony formation of HGC-27 cells [8]: significantly inhibited colony formation
- PP2Aa–STRN3 interaction in Co-IP [16]: further validated by Co-IP assay
- PP2Aa–STRN3 association in GST pulldown [18]: efficiently disrupt
